Measured values reported in ChEMBL document CHEMBL4402552, “The Discovery of 7-Methyl-2-[(7-methyl[1,2,4]triazolo[1,5-a]pyridin-6-yl)amino]-9-(tetrahydro-2H-pyran-4-yl)-7,9-dihydro-8H-purin-8-one (AZD7648), a Potent and Selective DNA-Dependent Protein Kinase (DNA-PK) Inhibitor” (J Med Chem, 2020).
Values after ≈ are worked out from the molar mass of the structure shown.

What was measured:
[1] = Drug level in rat hepatocytes treated with 9-(trans-4-Hydroxycyclohexyl)-2-[(4-methoxy-2-methylphenyl)amino]-7-methyl-7,9-dihydro-8H-purin-8-one assessed as compound formation at 5 uM measured after 60 mins by UV-MS analysis; format: ADME, cell-based, Hepatocyte; conditions: 1 h
[2] = Drug level in mouse hepatocytes treated with 9-(trans-4-Hydroxycyclohexyl)-2-[(4-methoxy-2-methylphenyl)amino]-7-methyl-7,9-dihydro-8H-purin-8-one assessed as compound formation at 5 uM measured after 60 mins by UV-MS analysis; format: ADME, cell-based, Hepatocyte; conditions: 1 h
physchem = conditions: buffer, pH 7.4
[3] = Apparent permeability across apical to basolateral side in human Caco2 cells in absence of efflux inhibitor by ABBA assay; format: ADME, cell-based; conditions: Caco-2
[4] = Intrinsic clearance in human microsomes; format: ADME, Microsome
[5] = Dissociation constant, pKa of the compound; format: physicochemical
[6] = Drug metabolism in rat hepatocytes assessed as dealkylation at 5 uM measured after 60 mins by UV-MS analysis; format: ADME, cell-based, Hepatocyte; conditions: 1 h
[7] = Drug metabolism in human hepatocytes assessed as dealkylation at 5 uM measured after 60 mins by UV-MS analysis; format: ADME, cell-based, Hepatocyte; conditions: 1 h
[8] = Drug metabolism in mouse hepatocytes assessed as dealkylation and oxidation by measuring iminoquinone formation at 5 uM measured after 60 mins by UV-MS analysis; format: ADME, cell-based, Hepatocyte; conditions: 1 h
[9] = Drug metabolism in mouse hepatocytes assessed as dealkylation at 5 uM measured after 60 mins by UV-MS analysis; format: ADME, cell-based, Hepatocyte; conditions: 1 h
[10] = Drug metabolism in rat hepatocytes assessed as dealkylation and oxidation by measuring iminoquinone formation at 5 uM measured after 60 mins by UV-MS analysis; format: ADME, cell-based, Hepatocyte; conditions: 1 h
[11] = Free plasma concentration in SCID mouse at 100 mg/kg, po qd measured after 10 hrs; format: ADME, organism-based; conditions: in vivo
[12] = Oral bioavailability in Beagle dog at 2 mg/kg; format: ADME, organism-based, Canis lupus familiaris; conditions: in vivo
[13] = Oral bioavailability in Han Wistar rat at 5 mg/kg; format: ADME, organism-based; conditions: in vivo
[14] = Solubility of the compound in fasted state simulated intestinal fluid using crystalline sample; format: physicochemical
[15] = Volume of distribution at steady state in Beagle dog at 1 mg/kg, iv or 2 mg/kg, po; format: ADME, organism-based, Canis lupus familiaris; conditions: in vivo, read-out: Vdss
[16] = Volume of distribution at steady state in Han Wistar rat at 2 mg/kg, iv or 5 mg/kg, po; format: ADME, organism-based; conditions: in vivo, read-out: Vdss
[17] = Solubility of the compound in simulated gastric fluid using crystalline sample; format: physicochemical
[18] = Cmax in ATM knock out human FADU cells xenografted SCID mouse at 100 mg/kg, po qd measured after 2 hrs; format: ADME, organism-based; conditions: in vivo, read-out: T>IC50
[19] = Time at which plasma concentration stays above in vitro IC50 for inhibition of DNA-PK in human A549 cells in SCID mouse at 100 mg/kg, po qd; format: organism-based; conditions: in vivo

logD (physchem) | Papp A→B [3] [×10⁻⁶ cm/s] | SMILES | also measured
 |  | NC1=C(C(=O)c2ccccc2)/C(=N/c2ccccc2C(=O)c2ccccc2)C=CC1=O | Drug uptake [1]: Metabolite_Detected; Drug uptake [2]: Metabolite_Detected
4.1 |  | COc1ccc(Nc2ncc3c(n2)n(C2CCCCC2)c(=O)n3C)c(C)c1 | 
1.3 | 0.4 | Cc1cc2ncnn2cc1Nc1ncc2c(n1)n([C@H]1CC[C@H](O)CC1)c(=O)n2C | 
2.5 |  | Cc1ccccc1Nc1ncc2c(n1)n([C@H]1CC[C@H](O)CC1)c(=O)n2C | 
2 | 23 | Cc1cc2ncnn2cc1Nc1ncc2c(n1)n(C1CCC(F)(F)CC1)c(=O)n2C | microsomal CLint [4]: 68 µL/min/mg
2.8 |  | COc1ccc(Nc2ncc3c(n2)n(-c2ccccc2)c(=O)n3C)c(C)c1 | 
2.4 |  | Cn1c(=O)n([C@H]2CC[C@H](O)CC2)c2nc(Nc3ccccc3)ncc21 | 
2.3 |  | COc1ccc(Nc2ncc3[nH]c(=O)n([C@H]4CC[C@H](O)CC4)c3n2)c(C)c1 | 
2.3 |  | COc1ccc(Nc2ncc3c(n2)n([C@H]2CC[C@H](O)CC2)c(=O)n3C)cc1 | 
2.6 |  | COc1ccc(C)c(Nc2ncc3c(n2)n([C@H]2CC[C@H](O)CC2)c(=O)n3C)c1 | 
 | 11 | Cc1cc2nccn2cc1Nc1ncc2c(n1)n(C1CCOCC1)c(=O)n2C | pKa [5]: 7.1
3.7 |  | COc1ccc(Nc2ncc3c(n2)n(C2CCCC2)c(=O)n3C)c(C)c1 | 
1.9 | 24 | Cc1cc2ncnn2cc1Nc1ncc2c(n1)n([C@H]1CC[C@@](C)(O)CC1)c(=O)n2C | pKa [5]: 3.6
1.2 |  | Cc1c(Nc2ncc3c(n2)n([C@H]2CC[C@H](O)CC2)c(=O)n3C)ccc2nccn12 | 
1.8 |  | Cn1c(=O)n([C@H]2CC[C@H](O)CC2)c2nc(Nc3ccc4nccn4c3)ncc21 | 
1.4 | 0.4 | Cc1cc2nccn2cc1Nc1ncc2c(n1)n([C@H]1CC[C@H](O)CC1)c(=O)n2C | 
2.3 |  | COc1ccc(Nc2ncc3c(n2)n([C@H]2CC[C@H](O)CC2)c(=O)n3C)c(C)c1 | Drug metabolism [6]: Metabolite_Detected; microsomal CLint [4]: 49 µL/min/mg; Drug metabolism [7]: Metabolite_Detected; Drug metabolism [8]: Metabolite_Detected; Drug metabolism [9]: Metabolite_Detected; Drug metabolism [10]: Metabolite_Detected
3.1 | 24 | Cc1cc2ncnn2cc1Nc1ncc2c(n1)n(C1CCCCC1)c(=O)n2C | microsomal CLint [4]: 93 µL/min/mg
1.1 | 0.7 | Cc1cc2ncnn2cc1Nc1ncc2c(n1)n([C@H]1CC[C@](C)(O)CC1)c(=O)n2C | 
1.7 |  | Cn1c(=O)n([C@H]2CC[C@H](O)CC2)c2nc(Nc3ccc4ncnn4c3)ncc21 | 
1.3 | 22 | Cc1cc2ncnn2cc1Nc1ncc2c(n1)n(C1CCOCC1)c(=O)n2C [AZD-7648] | Cp(f) [11]: > 1 µM; bioavailability [12]: 93%; bioavailability [13]: 104%; solubility thermodynamic [14]: 180 µM (≈ 68.5 µg/mL); Vd [15]: 0.7 L/kg; Vd [16]: 1.4 L/kg; solubility thermodynamic [17]: > 10000 µM; pKa [5]: 3.4; Cmax [18]: 17 µM; Time [19]: > 12 h
